Columns and labels:
[1] = molecular target: T1, FPR1 (Homo sapiens, UniProt P21462); experiment: Compound-induced calcium activity (FLIPR Tetra) in CHO-Gα16 cells stably expressing FPR1; type: cell-based; conditions: for EC50 / Emax: CHO-Gα16 cells stably expressing FPR1; for EC50: calcium activity, tested 0.61 to 10,000 nM, read-out: FPR1 Ga16-CHO EC50; for Emax: efficacy value in brackets, read-out: FPR1 Ga16-CHO (% eff); for Ratio FPR2:FPR1 (EC50): ratio of the EC50 for agonizing FPR2 to the EC50 for agonizing FPR1
T1 construct: expressed in transfected cells
T1 sequence (P21462 1-350): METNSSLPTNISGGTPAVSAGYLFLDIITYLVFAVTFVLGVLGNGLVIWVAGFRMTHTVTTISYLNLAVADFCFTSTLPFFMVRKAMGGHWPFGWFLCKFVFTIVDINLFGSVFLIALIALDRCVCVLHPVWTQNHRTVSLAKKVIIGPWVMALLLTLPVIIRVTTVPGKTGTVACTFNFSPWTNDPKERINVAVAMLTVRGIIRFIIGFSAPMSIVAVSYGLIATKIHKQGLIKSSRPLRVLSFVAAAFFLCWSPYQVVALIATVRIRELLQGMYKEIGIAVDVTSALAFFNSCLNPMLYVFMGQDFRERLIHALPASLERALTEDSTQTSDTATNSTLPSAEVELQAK
Description: (§1) CHO-Gα16 cells stably expressing FPR1 or FPR2 were cultured in: Ham's F12 nutrient media, 10% fetal bovine serum, 1% PSA (penicillin, streptomycin, amphotericin B antiobiotic/antimycotic), 400 μg/ml geneticin and 50 μg/ml hygromycin. In general, the day before the experiment, 18,000 cells/well were plated in a 384-well clear bottom poly-D-lysine coated plate. The following day the screening compound-induced calcium activity was assayed on the FLIPR^Tetra. The drug plates were prepared in 384-well microplates using the EP3 and the MultiPROBE robotic liquid handling systems. Compounds were tested at concentrations ranging from 0.61 to 10,000 nM. Results are expressed as EC50 (nM) and efficacy values.

[2] = molecular target: T2, FPR2 (Homo sapiens, UniProt P25090); experiment: Compound-induced calcium activity (FLIPR Tetra) in CHO-Gα16 cells stably expressing FPR2; type: cell-based; conditions: for EC50: calcium activity, tested 0.61 to 10,000 nM, read-out: FPR2 Ga16-CHO EC50; for Emax: efficacy value in brackets, read-out: FPR2 Ga16-CHO (% eff)
T2 construct: expressed in transfected cells
T2 sequence (P25090 1-351): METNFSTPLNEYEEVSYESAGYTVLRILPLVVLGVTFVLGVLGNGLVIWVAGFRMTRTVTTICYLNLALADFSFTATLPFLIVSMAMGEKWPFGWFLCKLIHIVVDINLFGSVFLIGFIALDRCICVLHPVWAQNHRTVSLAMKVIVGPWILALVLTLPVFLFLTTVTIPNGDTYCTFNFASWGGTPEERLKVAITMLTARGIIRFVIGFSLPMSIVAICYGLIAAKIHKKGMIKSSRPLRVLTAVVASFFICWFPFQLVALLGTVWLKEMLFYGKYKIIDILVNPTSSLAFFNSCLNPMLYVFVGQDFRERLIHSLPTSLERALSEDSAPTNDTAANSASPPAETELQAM
Description: as §1

SMILES	EC50 [1]	Emax [1]	Ratio FPR2:FPR1 (EC50) [1]	EC50 [2]	Emax [2]
CC(C)CC(CNC(=O)Nc1ccc(Br)cc1)C(=O)NCC(=O)O (centres unmarked) [Compound 36, ({2-[({[(4-bromophenyl)amino]carbonyl}amino)methyl]-4-methylpentanoyl}amino)acetic acid]	156 nM	95%	6.4	1000 nM	43%
CC(C)CC(CNC(=O)Nc1ccc(Br)cc1)C(=O)N(C)CC(=O)O (centres unmarked) [Compound 37, 2-(2-((3-(4-bromophenyl)ureido)methyl)-N,4-dimethylpentanamido)acetic acid]	55 nM	96%	0.22	12 nM	104%
COC(=O)C(CNC(=O)CNC(=O)Nc1ccc(Br)cc1)CC(C)C (centres unmarked) [Compound 38]	2600 nM	77%	0.83	2170 nM	80%
CC(C)CC(CNC(=O)CNC(=O)Nc1ccc(Br)cc1)C(=O)O (centres unmarked) [Compound 39, 2-((2-(3-(4-Bromophenyl)ureido)acetamido)methyl)-4-methylpentanoic acid]	19 nM	96%	88	1680 nM	77%

— patent US11286234B2, “Phenyl urea derivatives as N-formyl peptide receptor modulators” (Allergan, Inc., priority 2016, dated 2022)
